Measurements: PubChem BioAssay AID1919013 (Molecular Pharmacology Branch, DTP, NCI, 2023)
Several values for one entry are separate records, joined by “and”; a condition that tells them apart may be missing. Equal entries are not always repeated.

System: LG0703-F498-PDC complex spheroid growth
Assay: Anticancer human tumor LG0703-F498-PDC patient-derived lung adenocarcinoma cell line growth inhibition [AhR]
Conditions: for viability, T/C: stronger effect = lower value
Description: Multicellular complex tumor spheroid response to aryl hydrocarbon receptor antagonists in combination with a variety of drugs and investigational agents in selected tumor cell lines
The current study was undertaken to assess response to aryl hydrocarbon receptor antagonists in combination with standard-of-care drugs and investigational agents in solid tumor complex spheroid models. Complex spheroids include a stromal component modeled by human endothelial cells (HUVEC) and fibroblasts modeled by human mesenchymal stem cells (MSCs). The concentration ranges selected for each drug and investigational agent were based upon clinically achievable concentrations if the clinical Cmax of the agent was known.
Compounds. The drugs and investigational agents: BAY 2416964 (NSC825713), GNF351 (NSC835774), CH-223191 (NSC835775), CPI-455 (NSC825282), aza-TdCyd (NSC777586), decitabine (NSC127716), belinostat (NSC758774), entinostat (NSC756642), pevonedistat (NSC761192), tazemetostat (NSC777109), talazoparib (NSC765396), olaparib (NSC753686), selinexor (NSC780203), nedisertib (M3814, NSC802822), bortezomib (NSC756655), venetoclax (NSC766270), doxorubicin (NSC123127), elimusertib (BAY189344, NSC800525), ceralasertib (AZD6738, NSC777638), TAK-243 (NSC785004), alisertib (NSC759677), etoposide (NSC141540), topotecan (NSC609699), eribulin (NSC707389), gemcitabine (NSC613327), carboplatin (NSC241240), cisplatin (NSC119875), and SN-38 (NSC673596) were obtained from the National Cancer Institute (NCI) Developmental Therapeutics Program Chemical Repository (32). The FDA-approved anticancer drug set is available from the Developmental Therapeutics Program at https://dtp.cancer.gov/organization/dscb/obtaining/available plates.htm. […] The stock solutions were prepared in dimethyl sulfoxide (DMSO, Sigma-Aldrich, St. Louis, MO, cat. D2650), except for the platinum compounds which were prepared in saline (Quality Biological, Gaithersburg, MD, cat. 114-055-101), at 800-fold the tested concentration and stored at -70 degrees C prior to their use. All drugs and investigational agents were tested over a range starting from a high concentration at or near the clinical Cmax and decreasing in half-log increments. If the clinical Cmax for an agent had not been determined, the highest concentration tested was 10 microM (Table 1).
Cell Culture. All cells were maintained in an incubator at 37 degrees C and 5% CO2 with 95% humidity. The PDC lines were cultured according to standard operating procedures established by the NCI PDMR (https://pdmr.cancer.gov). Briefly, all PDCs were thawed and cultured in Matrigel-coated flasks prepared with a working solution of 1X Ham's F-12 nutrient mix, without supplementation (Invitrogen, Waltham, MA, cat. 11765054), 100 U/mL penicillin-streptomycin (Invitrogen, cat. 15140122), and 2.5% Matrigel (Corning Inc., Corning, NY, cat. 354248) for the first three passages. All PDCs were cultured in complete DMEM/F-12 media containing advanced DMEM/F-12 (Invitrogen, cat. 12634028), 4.9% defined fetal bovine serum, heat inactivated (HyClone Laboratories Inc., Logan, UT, cat. SH30070.03HI), 389 ng/mL hydrocortisone (Sigma-Aldrich, cat. H4001), 9.7 ng/mL human EGF recombinant protein (Invitrogen, cat. PHG0313), 23.4 microg/mL adenine (Sigma-Aldrich, cat. A2786), 97.3 U/mL penicillin-streptomycin (Invitrogen, cat. 15140122), 1.9 mM L-glutamine (Invitrogen, cat. 25030081), and 9.7 microM Y-27632 dihydrochloride (Tocris Bioscience, Bristol, United Kingdom, cat. 1254). The PDCs were cultured in complete DMEM/F12 media without 10 microM Y-27632 dihydrochloride for at least two passages prior to the screen. The established cell lines NCI-H1341 and […] were cultured in DMEM/F-12, HEPES (Invitrogen, cat. 11330032), 5% defined fetal bovine serum (HyClone Laboratories Inc., cat. SH30070.03), ITS premix universal culture supplement [insulin (5 microg/mL), transferrin (5 microg/mL), and selenious acid (5 ng/mL)] […]
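Further: luminescence taken as a proxy for viable cell amount.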
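Wherever viability, T/C is given: percent of DMSO vehicle control where 100% means growth equal to vehicle.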

| SMILES | IC50 (curve of compound) | viability, T/C (compound 0.0316 µM) | viability, T/C (compound 0.1 µM) | viability, T/C (compound 0.316 µM) | viability, T/C (compound 1 µM) | viability, T/C (compound 3.16 µM) | viability, T/C (compound 10 µM) | also measured |
| --- | --- | --- | --- | --- | --- | --- | --- | --- |
| CC(C)CC(NC(=O)C(Cc1ccccc1)NC(=O)c1cnccn1)B(O)O (stereo not given) | 0.00429 µM and 0.0055 µM and 0.00288 µM |  |  |  |  |  |  | viability, T/C (compound 0.000949 µM): 99.7% and 97.7% and 92.7%; viability, T/C (compound 0.003 µM): 69.5% and 94.8% and 48.4%; viability, T/C (compound 0.00949 µM): 6.8% and 9.74% and 2.07%; viability, T/C (compound 0.03 µM): 0.44% and 0.8% and 0.23%; viability, T/C (compound 0.0949 µM): 0.15% and 0.2% and 0.16%; viability, T/C (compound 0.3 µM): 0.19% and 0.35% and 0.18% |
| CC(C)c1c(-c2ccccc2)nc2c(C#N)c[nH]n2c1=O | > 10 µM | 101% and 99.1% and 108% | 96.1% and 98.3% and 103% | 105% and 107% and 103% | 87% and 102% and 104% | 88.2% and 91.2% and 91.7% | 99.6% and 90.7% and 93.6% |  |
| CC(CO)NC(=O)c1cc(-c2ccc(Cl)cc2)nn(-c2cnn(C)c2)c1=O (stereo not given) |  |  |  |  | 87.9% [middle of 21 runs] |  | 77% [middle of 19 runs] | IC50 (compound alone, run of 05/31/2022): > 10 µM |
| CC1(C)CCC(CN2CCN(c3ccc(C(=O)NS(=O)(=O)c4ccc(NCC5CCOCC5)c([N+](=O)[O-])c4)c(Oc4cnc5[nH]ccc5c4)c3)CC2)=C(c2ccc(Cl)cc2)C1 | 9.24 µM and 6.4 µM and 6.39 µM | 100% and 112% and 101% | 105% and 99.6% and 110% | 94.1% and 105% and 96.2% | 98.5% and 101% and 95.5% | 98.2% (2×) and 102% | 46.4% and 19.4% and 17.5% |  |
| CC1COCCN1c1cc(-c2ccnn2C)c2ccnc(-c3ccn[nH]3)c2n1 (stereo not given) | 0.597 µM and 0.726 µM and 0.723 µM | 106% and 82.9% and 90.9% | 86.3% and 83.7% and 85% | 62.1% and 66.7% and 69.9% | 40.7% and 43.3% and 42% |  |  | viability, T/C (compound 0.00316 µM): 97.6% and 98.2% and 105%; viability, T/C (compound 0.01 µM): 102% and 105% and 98.7% |
| CC1COCCN1c1cc(C2(S(C)(=N)=O)CC2)nc(-c2ccnc3[nH]ccc23)n1 (stereo not given) | > 10 µM | 91% and 100% and 107% | 108% and 96.2% and 104% | 87.9% and 110% and 96.5% | 97.9% and 98.4% and 97.6% | 87.5% and 110% and 95.1% | 65.4% and 71% and 64.8% |  |
| CCN(c1cc(-c2ccc(CN3CCOCC3)cc2)cc(C(=O)NCc2c(C)cc(C)[nH]c2=O)c1C)C1CCOCC1 | > 3 µM |  |  |  |  |  |  | viability, T/C (compound 0.00949 µM): 102% and 110% and 103%; viability, T/C (compound 0.03 µM): 111% and 109% and 112%; viability, T/C (compound 0.0949 µM): 103% and 98.8% and 101%; viability, T/C (compound 0.3 µM): 99.3% and 99% and 107%; viability, T/C (compound 0.949 µM): 122% and 101% and 121%; viability, T/C (compound 3 µM): 106% and 110% and 113% |

Further lines, with some results ahead:

| IC50 (curve of compound) | SMILES | viability, T/C (compound 0.0316 µM) | viability, T/C (compound 0.1 µM) | viability, T/C (compound 0.316 µM) | viability, T/C (compound 1 µM) | viability, T/C (compound 3.16 µM) | viability, T/C (compound 10 µM) | also measured |
| --- | --- | --- | --- | --- | --- | --- | --- | --- |
| > 0.1 µM | CC[C@@]1(O)C(=O)OCc2c1cc1n(c2=O)Cc2cc3c(CN(C)C)c(O)ccc3nc2-1 | 85.8% and 111% and 87.9% | 68.1% and 69.4% and 73.8% |  |  |  |  | viability, T/C (compound 0.000316 µM): 104% and 108% and 106%; viability, T/C (compound 0.001 µM): 112% and 105% and 93.5%; viability, T/C (compound 0.00316 µM): 100% and 102% and 95.9%; viability, T/C (compound 0.01 µM): 90.5% and 93.7% and 90% |
| 0.0674 µM and 0.111 µM and 0.123 µM | CCc1c2c(nc3ccc(O)cc13)-c1cc3c(c(=O)n1C2)COC(=O)[C@]3(O)CC |  |  |  |  |  |  | viability, T/C (compound 0.000949 µM): 95.1% and 92.3% and 101%; viability, T/C (compound 0.003 µM): 87% and 101% and 106%; viability, T/C (compound 0.00949 µM): 95.9% and 86.3% and 92.1%; viability, T/C (compound 0.03 µM): 62.3% and 66% and 69.1%; viability, T/C (compound 0.0949 µM): 47.3% and 57% and 58.6%; viability, T/C (compound 0.3 µM): 30.2% and 32.5% and 34.4% |
| > 10 µM | COc1cc(C2c3cc4c(cc3C(OC3OC5COC(C)OC5C(O)C3O)C3COC(=O)C23)OCO4)cc(OC)c1O (stereo not given) | 95.8% and 105% and 103% | 109% and 113% and 98.3% | 99.8% and 102% and 96.6% | 86.4% and 106% and 110% | 80.5% and 96.5% and 87.8% | 64.3% and 75.6% and 70.2% |  |
| 5.98 µM and 5.06 µM and 6.78 µM | COc1cc(Nc2ncc3c(n2)-c2ccc(Cl)cc2C(c2c(F)cccc2OC)=NC3)ccc1C(=O)O | 87.2% and 100% and 93.8% | 81% and 83.4% and 82.2% | 67.8% and 64.2% and 72.7% | 76.2% and 77.1% and 73.1% | 67% and 61% and 63.3% | 37.5% and 36.6% and 41.4% |  |
| 5.77 µM and 5.83 µM and 5.19 µM | COc1ccc([C@@H](O)c2cc(-c3ncnc4cc(N5CCOCC5)ccc34)c(F)cc2Cl)nn1 | 97% and 89.7% and 103% | 94.4% and 103% and 102% | 94.6% and 103% and 100% | 93.6% and 93.9% and 90% | 75.6% and 76.3% and 67.8% | 26.7% and 26.9% and 26.5% |  |
